Data set [1] relates to Staphylococcus aureus (ATCC 25923). Description: Intrinsic antimicrobial activity (MIC) against S. aureus. Format: cell-based. The settings on record: ATCC25923, S. aureus ATCC 25923, mean (n = 3), read-out: MIC S. a. In outline: (§1)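 MICs for S. aureus ATCC 25923 and P. aeruginosa ATCC 27853 determined by previously reported protocols; C. albicans ATCC 90028 and C. neoformans ATCC 208821 tested at the Community for Open Antimicrobial Drug Discovery (University of Queensland) under its standard protocols.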

Data set [2] concerns MRSA (ATCC 43300). Description: Intrinsic antimicrobial activity (MIC) against MRSA. The conditions noted are these: Staphylococcus aureus, MRSA ATCC 43300; mean (n = 2); read-out: MIC MRSA. Format: cell-based. Summed up: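 Bacterial susceptibility was determined following previously reported protocols. The antifungal evaluations were carried out at the Community for Open Antimicrobial Drug Discovery (University of Queensland, Australia) under its standard protocols.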

Data set [3] has as its system Pseudomonas aeruginosa (ATCC 27853). Nature of the data set: Intrinsic antimicrobial activity (MIC) against P. aeruginosa. The settings on record: ATCC27853, P. aeruginosa ATCC 27853, mean (n = 3), read-out: MIC P. a. It counts as cell-based. In outline: as §1
Data set [4] concerns Escherichia coli (ATCC 25922). Description: Intrinsic antimicrobial activity (MIC) against E. coli. Format: cell-based. The settings on record: ATCC25922, E. coli ATCC 25922, mean (n = 3), read-out: MIC E. c. Summed up: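 MIC values come from two sources: bacteria tested by previously reported protocols, and Candida and Cryptococcus tested at the Community for Open Antimicrobial Drug Discovery under standard conditions.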

Data set [5] concerns Klebsiella pneumoniae (ATCC 700603). Nature of the data set: Intrinsic antimicrobial activity (MIC) against K. pneumoniae. Format: cell-based. The settings on record: ATCC700603, K. pneumoniae ATCC 700603, mean (n = 2), read-out: MIC K. p. The method, then: (§2) The susceptibility of bacterial strains Staphylococcus aureus (ATCC 25923), Escherichia coli (ATCC 25922) and Pseudomonas aeruginosa (ATCC 27853) to antibiotics and compounds was determined using previously reported protocols. Additional antimicrobial evaluation against MRSA (ATCC 43300), Klebsiella pneumoniae (ATCC 700603), Acinetobacter baumannii (ATCC 19606), Candida albicans (ATCC 90028) and Cryptococcus neoformans (ATCC 208821) was undertaken at the Community for Open Antimicrobial Drug Discovery at The University of Queensland (Australia) according to their standard protocols, as reported previously.

Data set [6] relates to Acinetobacter baumannii (ATCC 19606). Description: Intrinsic antimicrobial activity (MIC) against A. baumannii. Format: cell-based. The conditions noted are these: ATCC19606, A. baumannii ATCC 19606, mean (n = 2), read-out: MIC A. b. How it is done:
as §2

Data set [7] relates to Candida albicans (ATCC 90028). Nature of the data set: Intrinsic antifungal activity (MIC) against C. albicans. It counts as cell-based. The settings on record: ATCC90028, C. albicans ATCC 90028, mean (n = 2), read-out: MIC C. a. In outline: (§3)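 Fungal strains were tested by CO-ADD at The University of Queensland using that facility's standard protocols, whereas bacterial MICs followed methods published earlier.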

In data set [8] the test system is Cryptococcus neoformans (ATCC 208821). Description: Intrinsic antifungal activity (MIC) against C. neoformans. Format: cell-based. The settings on record: ATCC208821, C. neoformans ATCC 208821, mean (n = 2), read-out: MIC C. n. Summed up:
as §3

Data set [9] is described as follows: Cytotoxicity assay. It counts as cell-based. The conditions noted are these: human; HEK293 cells; mean (n = 2); read-out: Cytotoxicity: concentration of compound at 50% cytotoxicity (IC50). The method, then: Cytotoxicity assays were conducted using the protocols previously reported.
Data set [10] concerns human red blood cells. Description: Hemolytic assay. The settings on record: mean (n = 2). Format: cell-based. How it is done: Hemolysis assays were conducted using the protocols previously reported.
In data set [11] the test system is P. aeruginosa ATCC 27853. Description: Enhancement of doxycycline action against P. aeruginosa. The settings on record: doxycycline at 4.5 µM. It counts as cell-based, Pseudomonas aeruginosa. The method, then:
(§4) Antibiotic enhancer concentrations were determined using previously reported protocols.

Data set [12] has as its system E. coli ATCC 25922. Nature of the data set: Enhancement of erythromycin action against E. coli. It counts as cell-based, Escherichia coli. The settings on record: erythromycin at 10.9 µM. How it is done:
as §4

Where only a bound is given, the exact number is not on record here.

`Cc1ccc2[nH]cc(CC(=O)NCCCNCCCCCCNCCCNC(=O)Cc3c[nH]c4ccc(C)cc34)c2c1.O=C(O)C(F)(F)F.O=C(O)C(F)(F)F` [Compound 17b, N^1,N^6-Bis(3-(2-(5-methyl-1H-indol-3-yl)acetamido)propyl)hexane-1,6-diaminium 2,2,2-trifluoroacetate]: the MIC is 31.2 µM in [1]; no more than 0.31 µM in data set [2]; greater than 250 µM in data set [3]; 250 µM in data set [4]; greater than 40 µM in [5]; greater than 40 µM in data set [6]. Moreover, the values for the MIC in data set [7] and in [8] were 40 µM and no more than 0.31 µM, respectively. The IC50 in data set [9] is greater than 40 µM. The “Hemolysis: concentration of compound at 10% hemolytic activity (HC10)” value (“Hemolysis … at 10% hemolytic activity (HC10)” below) in data set [10] was 23.1 µM. In addition, the “Dox/P. a fold change (ratio between intrinsic MIC of the test compound and combination MIC)” value in data set [11] was greater than 8 fold. Moreover, the “Dox/P. a: concentration required to restore doxycycline activity (combination MIC)” value (from here on “Dox/P. a: concentration required”) in data set [11] was 31.2 µM. In data set [12], the “Eryth/E. c: concentration required to restore erythromycin activity (combination MIC)” value (“Eryth/E. c: concentration required” for short) turned out to be 31.2 µM.

For the molecule `Cc1ccc2[nH]cc(CC(=O)NCCCNCCCCCCCNCCCNC(=O)Cc3c[nH]c4ccc(C)cc34)c2c1.O=C(O)C(F)(F)F.O=C(O)C(F)(F)F` [Compound 17c, N^1,N^7-Bis(3-(2-(5-methyl-1H-indol-3-yl)acetamido)propyl)heptane-1,7-diaminium 2,2,2-trifluoroacetate], the MIC in [1] is 61.4 µM; in data set [2], less than 0.2 µM; in data set [3], greater than 245 µM; in data set [4] it was 245 µM; in [5], greater than 39 µM; in data set [6] it was greater than 39 µM. The MIC in data set [7] is 39.3 µM; in data set [8], less than 0.2 µM. Also, the IC50 in data set [9] was greater than 39 µM. In addition, in [10], the “Hemolysis … at 10% hemolytic activity (HC10)” value is listed as greater than 39 µM. In data set [11], the “Dox/P. a fold change (ratio between intrinsic MIC of the test compound and combination MIC)” value is listed as greater than 2 fold. Besides, the “Dox/P. a: concentration required” value in data set [11] is reported as 123 µM. Moreover, the “Eryth/E. c: concentration required” value in data set [12] stood at 61.4 µM.

Turning to `Cc1ccc2[nH]cc(CC(=O)NCCCNCCCCCCCCCCNCCCNC(=O)Cc3c[nH]c4ccc(C)cc34)c2c1.O=C(O)C(F)(F)F.O=C(O)C(F)(F)F` [Compound 17e, N^1,N^10-Bis(3-(2-(5-methyl-1H-indol-3-yl)acetamido)propyl)decane-1,10-diaminium 2,2,2-trifluoroacetate], the MIC in data set [1] is 7.29 µM; in data set [2], no more than 0.29 µM; in data set [3] it was 233 µM; in data set [4], 58.3 µM; in data set [5], greater than 37 µM; in data set [6], 37 µM. Also, the MIC in [7] and in [8] was no more than 0.29 µM in each case. Besides, the IC50 in data set [9] is greater than 37 µM. Also, the “Hemolysis … at 10% hemolytic activity (HC10)” value in [10] turned out to be 3.19 µM. Moreover, in data set [11], the “Dox/P. a fold change (ratio between intrinsic MIC of the test compound and combination MIC)” value is recorded as 1 fold. Further, the “Dox/P. a: concentration required” value in data set [11] was found to be 233 µM. In data set [12], the “Eryth/E. c: concentration required” value was determined as 29.2 µM.

For the molecule `Cc1ccc2[nH]cc(CC(=O)NCCCNCCCCCCCCCCCCNCCCNC(=O)Cc3c[nH]c4ccc(C)cc34)c2c1.O=C(O)C(F)(F)F.O=C(O)C(F)(F)F` [Compound 17f, N^1,N^12-Bis(3-(2-(5-methyl-1H-indol-3-yl)acetamido)propyl)dodecane-1,12-diaminium 2,2,2-trifluoroacetate], the MIC was 7.06 µM in data set [1]; no more than 0.28 µM in data set [2]; 226 µM in data set [3]; 14.1 µM in [4]; greater than 36 µM in data set [5]; 36 µM in [6]. Further, the MIC in data set [7] and in data set [8] was no more than 0.28 µM in each case. For the same molecule, the IC50 in [9] is greater than 36 µM. In data set [10], the “Hemolysis … at 10% hemolytic activity (HC10)” value is on record as no more than 0.28 µM. In addition, in data set [11], the “Dox/P. a fold change (ratio between intrinsic MIC of the test compound and combination MIC)” value was found to be 1 fold. Also, the “Dox/P. a: concentration required” value in data set [11] came to 226 µM. In data set [12], the “Eryth/E. c: concentration required” value was found to be 14.1 µM.

For `O=C(Cc1c[nH]c2c(F)cccc12)NCCCNCCCCNCCCNC(=O)Cc1c[nH]c2c(F)cccc12.O=C(O)C(F)(F)F.O=C(O)C(F)(F)F` [Compound 18a, N^1,N^4-Bis(3-(2-(7-fluoro-1H-indol-3-yl)acetamido)propyl)butane-1,4-diaminium 2,2,2-trifluoroacetate], the MIC in [1] was 16 µM; in data set [2], less than 0.2 µM; in data set [3], greater than 256 µM; in data set [4], 256 µM; in data set [5] it was greater than 41 µM; in [6], greater than 41 µM. The results for the minimum inhibitory concentration (MIC) in data set [7] and in data set [8] were 5.12 µM and less than 0.2 µM, respectively. Further, in [9], the IC50 was greater than 41 µM. Also, the “Hemolysis … at 10% hemolytic activity (HC10)” value in data set [10] was greater than 41 µM. In addition, in data set [11], the “Dox/P. a fold change (ratio between intrinsic MIC of the test compound and combination MIC)” value was 4 fold. The “Dox/P. a: concentration required” value in [11] was found to be 64.0 µM. Also, the “Eryth/E. c: concentration required” value in data set [12] was determined as 64.0 µM.

Regarding `O=C(Cc1c[nH]c2c(F)cccc12)NCCCNCCCCCCNCCCNC(=O)Cc1c[nH]c2c(F)cccc12.O=C(O)C(F)(F)F.O=C(O)C(F)(F)F` [Compound 18b, N^1,N^6-Bis(3-(2-(7-fluoro-1H-indol-3-yl)acetamido)propyl)hexane-1,6-diaminium 2,2,2-trifluoroacetate], the MIC in [1] is 124 µM; in data set [2], less than 0.2 µM; in [3] it was greater than 247 µM; in [4], greater than 247 µM; in [5] it was greater than 40 µM; in data set [6], greater than 40 µM. In addition, the MIC in [7] was 39.6 µM; in [8], less than 0.2 µM. Further, the IC50 in data set [9] was greater than 40 µM. In addition, the “Hemolysis … at 10% hemolytic activity (HC10)” value in data set [10] is greater than 40 µM. The “Dox/P. a fold change (ratio between intrinsic MIC of the test compound and combination MIC)” value in data set [11] was greater than 1 fold. Also, the “Dox/P. a: concentration required” value in [11] stood at 247 µM. In addition, in [12], the “Eryth/E. c: concentration required” value is on record as greater than 247 µM.

Turning to `COc1cccc2c(CC(=O)NCCCNCCCCCCCNCCCNC(=O)Cc3c[nH]c4c(OC)cccc34)c[nH]c12.O=C(O)C(F)(F)F.O=C(O)C(F)(F)F` [Compound 19c, N^1,N^7-Bis(3-(2-(7-methoxy-1H-indol-3-yl)acetamido)propyl)heptane-1,7-diaminium 2,2,2-trifluoroacetate], the MIC was 29.5 µM in [1]; 37.8 µM in data set [2]; greater than 236 µM in data set [3]; 236 µM in data set [4]; greater than 38 µM in [5]; greater than 38 µM in data set [6]. Besides, the MIC is greater than 38 µM in data set [7] and no more than 0.3 µM in data set [8]. Also, the IC50 in [9] was greater than 38 µM. In addition, the “Hemolysis … at 10% hemolytic activity (HC10)” value in data set [10] is on record as greater than 38 µM. The “Dox/P. a fold change (ratio between intrinsic MIC of the test compound and combination MIC)” value in [11] is greater than 2 fold. Besides, in [11], the “Dox/P. a: concentration required” value was 118 µM. Besides, the “Eryth/E. c: concentration required” value in data set [12] stood at 236 µM.

As a reminder, the MIC is the lowest concentration found to suppress growth.

For the origin of these results see PMC10452110, “Indole-3-Acetamido-Polyamines as Antimicrobial Agents and Antibiotic Adjuvants” (Biomolecules, 2023).
